Target: T1, mineralocorticoid receptor (MR) (Homo sapiens, UniProt P08235)
T1 construct: expressed in transfected cells; host or cells: HEK293 (human embryonic kidney cells)
T1 sequence (P08235 726-964 limits assumed): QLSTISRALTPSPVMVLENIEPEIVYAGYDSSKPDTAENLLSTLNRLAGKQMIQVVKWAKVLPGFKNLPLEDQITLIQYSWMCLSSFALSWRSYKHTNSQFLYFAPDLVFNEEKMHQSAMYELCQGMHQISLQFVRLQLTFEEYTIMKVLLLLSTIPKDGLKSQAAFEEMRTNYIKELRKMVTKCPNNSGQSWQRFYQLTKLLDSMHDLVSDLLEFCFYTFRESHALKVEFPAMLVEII
Assay: Activity test in vitro: Gal4 DBD-MR LBD dual luciferase reporter assay in HEK293 cells
Type: cell-based
Settings: HEK293 cells transfected with Gal4 DBD-MR LBD and firefly luciferase reporter; agonist aldosterone at EC80; 18 hours incubation; Renilla-corrected
Excerpt: Example a Activity Test In Vitro
Utilizing the characteristics of luciferase binding to the substrate to produce a chemiluminescence reaction, the fused plasmid of the Gal4 DNA binding domain (DBD) containing the ligand binding domain (LBD) of mineralocorticoid receptor (MR) and the firefly luciferase reporter gene plasmid controlled by Gal4 UAS (upstream activation sequences) were transfected into human embryonic kidney cells (HEK293). The changes in mineralocorticoid receptor activity between before and after stimulation or the influence of different stimuli on mineralocorticoid receptor activity was judged by the level of firefly luciferase activity. At the same time, in order to reduce the impact of internal change factors on the accuracy of the experiment, the plasmid with Renilla luciferase gene was used as a control plasmid to transfect cells to provide an internal control for transcription activity, so that the test results were not interfered by changes in experimental conditions.
1) HEK293 cells were collected after trypsinization and the cell density was adjusted to 500,000 cells/mL;
2) FuGENE HD transfection reagent was added into the cell suspension;
3) The above cell suspension was seeded into a 96-well cell culture plate at a density of 100 μL/well, and incubated for 24 hours at 37° C. in 5% CO2;
4) A series of concentrations of the test compound solution and the EC80 concentration of agonist aldosterone were added into each well and incubated for 18 hours;
5) Firefly and Renilla luciferase signals were detected through Promega dual luciferase reporter assay system.
1) After obtaining the firefly luciferase signal (F) and the Renilla luciferase signal (R), using the Renilla luciferase signal for correction, i.e., the F/R value was used to calculate the subsequent inhibition rate;
2)% inhibition rate=(Max−X)/(Max−Min)×100%, where Max is the F/R value of the positive control well, Min is the F/R value of the negative control well, and X is the F/R value of test compound well of different concentrations;
3) IC50 calculation was performed by GraphPrism 5.0 mapping software.

Row | Compound | IC50 [nM]
1 | COc1cc(C#N)ccc1C1C(C(N)=O)=C(C)Nc2c(C)cnc(OCC3CC3)c21 (centres unmarked) [Example 1, 4-(4-Cyano-2-methoxyphenyl)-5-(cyclopropylmethoxy)-2,8-dimethyl-1,4-dihydro-1,6-naphthyridine-3-carboxamide] | 19.4
2 | COc1cc(C#N)ccc1C1C(C(N)=O)=C(C)Nc2c(C)cnc(OCC3CCCC3)c21 (centres unmarked) [Example 3, 4-(4-Cyano-2-methoxyphenyl)-5-(cyclopentylmethoxy)-2,8-dimethyl-1,4-dihydro-1,6-naphthyridine-3-carboxamide] | 28.7
3 | COc1cc(C#N)ccc1C1C(C(N)=O)=C(C)Nc2c(C)cnc(OCC3CCC3)c21 (centres unmarked) [Example 5, 4-(4-cyano-2-methoxyphenyl)-5-(cyclobutylmethoxy)-2,8-dimethyl-1,4-dihydro-1,6-naphthyridine-3-carboxamide] | 17.8
4 | COc1cc(C#N)ccc1C1C(C(N)=O)=C(C)Nc2c(C)cnc(OC3CCC3)c21 (centres unmarked) [Example 7, 4-(4-Cyano-2-methoxyphenyl)-5-(cyclobutyloxy)-2,8-dimethyl-1,4-dihydro-1,6-naphthyridine-3-carboxamide] | 3.44
5 | COc1cc(C#N)ccc1C1C(C(N)=O)=C(C)Nc2c(C)cnc(OC3CCCC3)c21 (centres unmarked) [Example 8, 4-(4-Cyano-2-methoxyphenyl)-5-(cyclopentyloxy)-2,8-dimethyl-1,4-dihydro-1,6-naphthyridine-3-carboxamide] | 7.74
